Results as given in patent US7538072B2, “Stem/leaf desiccant” (Sumitomo Chemical Company, Limited, priority 2001, dated 2009).

What was measured:
[1] = tested on: potato plants; assay: Field test of desiccant effect on potato plants (foliar spray before harvest); format: in vivo; conditions: application amount 10 g/ha; emulsifiable concentrate diluted with water containing 1% (v/v) crop oil concentrate, sprayed at the time of foliage turning yellow; examined 14 day after treatment; average of 3 sections
Text: Seed potatoes were planted on a field and grown. At the time of the foliage turning yellow, 2.5 parts of each of compounds a-5 and a-6, 10 parts of Sorpol 3890 (Toho Chemical Industry Co., Ltd.), and 87.5 parts of SOLVESSO 200 (Exxon Mobile Chemical Company) were well mixed to give an emulsifiable concentrate for each compound, diluted at a prescribed dose with water containing 1% (v/v) crop oil concentrate (COC), and the dilution was uniformly sprayed to the plants. One section of the treated field are 2.1×15.2 m in area, and the potato plants on 14 day after the treatment were examined for the desiccant effect. In the table, the desiccation effect was evaluated with following criteria.
1: The desiccated area of foliage is 0 to 29%
2: The desiccated area of foliage is 30 to 69%
3: The desiccated area of foliage is 70 to 89%
4: The desiccated area of foliage is 90 to 99%
5: The desiccated area of foliage is 100%
The treatment was done in 3 sections, the result was indicated with an average of the 3 sections.

melting point [°C]	Compound	Desiccation effect [1]
	COC(=O)COc1ccccc1Oc1cc(-n2c(=O)cc(C(F)(F)F)n(C)c2=O)c(F)cc1Cl [Compound a-5, methyl [2-{2-chloro-4-fluoro-5-[3-methyl-2,6-dioxo-4-(trifluoromethyl)-1,2,3,6-tetrahydropyrimidin-1-yl]phenoxy}phenoxy]acetate]	5 (The desiccated area of foliage is 100%)
52.2	COC(=O)COc1ncccc1Oc1cc(-n2c(=O)cc(C(F)(F)F)n(C)c2=O)c(F)cc1Cl [Compound a-6, methyl [3-{2-chloro-4-fluoro-5-[3-methyl-2,6-dioxo-4-(trifluoromethyl)-1,2,3,6-tetrahydropyrimidin-1-yl]phenoxy}-2-pyridyloxy]acetate]	5 (The desiccated area of foliage is 100%)
